The values that follow come from patent publication US20060183221A1, “Method for neural differentiation of embryonic stem cells using protease passaging techniques” (priority 2003, published 2006).

The subject of experiment [1] is Oct4. In words: Oct4 expression by immunoblotting in EB8 stage ES cells incubated with S18. The format is cell-based, mouse. The procedure: In vitro differentiating ES cells at stage EB8 were incubated for 24-48 hours with 75 μM S18, or 35 μM N-acyl sphingosine or other ceramide analogs. Protein was isolated from cells incubated with S18 for 24 hours and from untreated cells, separated by SDS-PAGE, and the expression of Oct4 was analyzed by immunoblotting.
For orientation: In western blotting, separated proteins are transferred to a membrane and probed.

The test system of experiment [2] is sfEBMs in suspension. Description: S18 treatment of essentially serum free embryoid bodies (sfEBMs) in suspension, histology and immunocytochemistry. It counts as cell-based, human. The procedure: Essentially serum free embryoid bodies (sfEBMs) were generated as described in Example 6, and were exposed to S18 at different stages of their development in order to assess the timing of depletion of high Oct4 expressing cells, and in order to determine when neural rosettes could be selected. The sfEBMs in suspension were treated with 10 μM S18 in 50% DMEM/F12, 50% MEDII, supplemented with 1×N2, Glutamine (20 mM), penicillin (0.5 U/ml), and streptomycin (0.5 U/ml) for varying amounts of time, and the sfEBMs were then evaluated histologically and by immunocytochemistry.
Essentially serum free embryoid bodies were derived from protease passaged cells and grown in the presence of 50% MEDII conditioned medium. The embryoid bodies were exposed to 10 μM S18 in the same medium from day 6 to 9 after derivation. At day 9 the S18 treated sfEBMs and matched control sfEBMs not exposed to S18 were fixed, embedded in plastic, cut to 3 micron sections and stained with DAPI to enable the precise determination of the proportion of the total healthy nuclei of an sfEBM that were rosette cell nuclei.
This material was exposed to 10 μM S18 in 50% MEDII medium for 2 days, followed by manual passaging, and an additional 4 days in 10 μM S18 in the same medium. […] The non-rosette regions of the sfEBM fragmented when manipulated and released extensive stringy material that was indicative of genomic DNA from lysed cells. […] The rosette pieces were incubated in 10 μM S18 for a further 4 days, and the medium was then switched to 50% DMEM/F12, 50% MEDII, supplemented with 1×N2, and 4 ng/ml FGF-2 at day 20 after the initial derivation of the embryoid bodies.
At day 21 some ceramide selected sfEBMs were seeded onto polyornithine/laminin coated slides, cultured in the same medium for an additional 8 days, and fixed for immunostaining. These seeded pieces developed as rosette cultures and mats of neurons were observed differentiating from these precursors.
Essentially serum free embryoid bodies were derived from manually passaged cells, or protease passaged cells. EBs derived from protease passaged cells were formed in the presence of 50% MEDII conditioned medium. The embryoid bodies were exposed to 10 μM S18 in the same medium from day 6 to 9 after derivation. At day 9 the S18 treated sfEBMs matched control sfEBMs not exposed to S18, and matched control manually passaged sfEBs were sectioned to enable the precise determination of the proportion of the total healthy nuclei of an sfEBM that were rosette cell nuclei. The serum free embryoid bodies were embedded using the Immuno-Bed kit (Polysciences, Inc.). Serum free embryoid bodies were rinsed with 1×PBS and fixed in 4% paraformaldehyde, 4% sucrose in 1×PBS for 30 minutes at 4° C. The cells were then washed in 1×PBS and stored at 4° C. PBS was removed and the embryoid bodies were dehydrated by incubation in a series of 25%, 50%, 75% Ethanol/PBS for 5 minutes at room temperature, followed by 100% Ethanol. Infiltration solution was made by adding 0.25 g Benzoyl Peroxide to 20 ml Immuno-Bed Solution A. The ethanol was removed from the serum free embryoid bodies and 1 ml infiltration solution was added. After one hour, the infiltration solution was changed for three 20 min incubations. For embedding, 1 ml solution B (accelerator) was added to 25 ml fresh infiltration solution. The infiltration solution was removed from the serum free embryoid bodies and 0.5 ml embedding solution was added. The samples were transferred to a mold, a block holder was added and the mold was placed at 4° C. to set. 3 micron sections were cut using a Leica microtome, and were stained with DAPI.

The mark [3] stands for this setting: sfEBMs at day 14, 48 hours exposure to 10 μM S18.

The structures appear in SMILES notation. Entries after “also recorded” stand apart in the source; their conditions may differ.

For `CCCCCCCC/C=C\CCCCCCCC(=O)NC(CO)CO` [S18, N-(2-hydroxy-1-(hydroxymethyl)ethyl)-oleoylamide], in experiment [1] (75 μM S18 for 24 hours, SDS-PAGE immunoblot), the “Oct4 protein level by immunoblot relative to untreated control cells” value is given as 25%. Also, the “decrease in Oct4 protein levels” value in experiment [1] (after treatment with S18) amounted to 75%. In addition, the “derivation of sfEBMs from monolayer crater cells” value in experiment [2] (10 μM S18, four days of treatment) is reported as “No viable embryoid bodies were observed”. For the same compound, in experiment [2] (10 μM S18 in suspension, then seeded, anti-Oct4 immunostaining), the “regions or cells of high Oct4 expression (residual pluripotent cells)” value is “no regions of high Oct4 expression could be detected; also recorded: do not exhibit any cells expressing high levels of Oct4”. For the same compound, the “mitotic activity of neural rosette precursor cells (PhosphoHistone H3)” value in experiment [2] (day 28 after derivation, 8 days after withdrawal of S18) was “still mitotically active”. Also, in experiment [2] (setting [3]), the “apoptosis in the embryoid bodies” value is “extensive apoptosis in the bodies” and the “morphology of rosette regions” value was “morphologically normal”. The “surviving cells in DAPI stained sections of sfEBMs” value in experiment [2] (sfEBMs from SSEA4 selected protease passaged HESCs, 10 μM S18 from day 6 to 9) was “highly enriched population of neural rosette cells; also recorded: nearly all nuclei in the treated sfEBM were elongated in appearance; also recorded: Nearly all cells exhibited a radial nuclear staining”.
